Assays:
Assay in all cases: relative viability (nuclei count vs DMSO), 5 days (fraction); higher = more cells survive
HCC-827 = test system: HCC-827
Summary of the method: (§1)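 Lung cancer cell lines in 1536-well plates were dosed by pin tool the day after seeding, either with one drug alone or with a fixed anchor-drug dose plus five library-drug doses (not always all listed) in √10 steps. After 5 days, cells were fixed and their nuclei stained in one step (final 0.05% Triton X-100, 1% formaldehyde, 1 ug/ml Hoechst), then counted on 4× images. Relative viability is the nuclei count in treated wells divided by that in vehicle wells. Values are medians of duplicate plates.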

EPLC-272H = test system: EPLC-272H
Summary of the method: as §1

NCI-H2342 = test system: NCI-H2342
Summary of the method: as §1

SW 1573 = test system: SW 1573
Summary of the method: as §1

EKVX = test system: EKVX
Summary of the method: as §1

NCI-H647 = test system: NCI-H647
Summary of the method: as §1

LOU-NH91 = test system: LOU-NH91
Summary of the method: as §1

NCI-H1975 = test system: NCI-H1975
Summary of the method: as §1

NCI-H1437 = test system: NCI-H1437
Summary of the method: as §1

HCC-44 = test system: HCC-44
Summary of the method: as §1

H3255 = test system: H3255
Summary of the method: as §1

O=c1cc(N2CCOCC2)oc2c(-c3cccc4c3sc3ccccc34)cccc12 + Nc1nc2[nH]cc(CCc3ccc(C(=O)N[C@@H](CCC(=O)O)C(=O)O)cc3)c2c(=O)[nH]1 [Pemetrexed] (partner 0.2 µM)
relative viability (HCC-827; first compound 0.01 µM): 0.264
relative viability (HCC-827; first compound 0.03162 µM): 0.254
relative viability (HCC-827; first compound 0.1 µM): 0.295
relative viability (HCC-827; first compound 0.3162 µM): 0.271
relative viability (HCC-827; first compound 1 µM): 0.3
relative viability (EPLC-272H; first compound 0.01 µM): 0.344
relative viability (EPLC-272H; first compound 0.03162 µM): 0.361
relative viability (EPLC-272H; first compound 0.1 µM): 0.334
relative viability (EPLC-272H; first compound 0.3162 µM): 0.368
relative viability (EPLC-272H; first compound 1 µM): 0.442
relative viability (NCI-H2342; first compound 0.01 µM): 0.795
relative viability (NCI-H2342; first compound 0.03162 µM): 0.753
relative viability (NCI-H2342; first compound 0.1 µM): 0.772
relative viability (NCI-H2342; first compound 0.3162 µM): 0.755
relative viability (NCI-H2342; first compound 1 µM): 0.784
relative viability (SW 1573; first compound 0.01 µM): 0.847
relative viability (SW 1573; first compound 0.03162 µM): 0.937
relative viability (SW 1573; first compound 0.1 µM): 0.824
relative viability (SW 1573; first compound 0.3162 µM): 0.857
relative viability (SW 1573; first compound 1 µM): 0.778
relative viability (EKVX; first compound 0.01 µM): 0.41
relative viability (EKVX; first compound 0.03162 µM): 0.384
relative viability (EKVX; first compound 0.1 µM): 0.419
relative viability (EKVX; first compound 0.3162 µM): 0.365
relative viability (EKVX; first compound 1 µM): 0.362
relative viability (NCI-H647; first compound 0.01 µM): 0.187
relative viability (NCI-H647; first compound 0.03162 µM): 0.183
relative viability (NCI-H647; first compound 0.1 µM): 0.184
relative viability (NCI-H647; first compound 0.3162 µM): 0.209
relative viability (NCI-H647; first compound 1 µM): 0.178
relative viability (LOU-NH91; first compound 0.01 µM): 0.39
relative viability (LOU-NH91; first compound 0.03162 µM): 0.384
relative viability (LOU-NH91; first compound 0.1 µM): 0.377
relative viability (LOU-NH91; first compound 0.3162 µM): 0.386
relative viability (LOU-NH91; first compound 1 µM): 0.425
relative viability (NCI-H1975; first compound 0.01 µM): 0.309
relative viability (NCI-H1975; first compound 0.03162 µM): 0.27
relative viability (NCI-H1975; first compound 0.1 µM): 0.294
relative viability (NCI-H1975; first compound 0.3162 µM): 0.267
relative viability (NCI-H1975; first compound 1 µM): 0.309
relative viability (NCI-H1437; first compound 0.01 µM): 0.327
relative viability (NCI-H1437; first compound 0.03162 µM): 0.292
relative viability (NCI-H1437; first compound 0.1 µM): 0.313
relative viability (NCI-H1437; first compound 0.3162 µM): 0.314
relative viability (NCI-H1437; first compound 1 µM): 0.314
relative viability (HCC-44; first compound 0.01 µM): 0.667
relative viability (HCC-44; first compound 0.03162 µM): 0.643
relative viability (HCC-44; first compound 0.1 µM): 0.587
relative viability (HCC-44; first compound 0.3162 µM): 0.591
relative viability (HCC-44; first compound 1 µM): 0.664
relative viability (H3255; first compound 0.01 µM): 0.552
relative viability (H3255; first compound 0.03162 µM): 0.617
relative viability (H3255; first compound 0.1 µM): 0.531
relative viability (H3255; first compound 0.3162 µM): 0.585

— the supplement of paper PMC10307832
